Measurements published in patent US9274101B2 (BIOLOG, Inc., priority 2001, dated 2016).
In brackets after ≈: the same amount, converted by molar mass. Read-outs that look alike come from different tables or passages of the source.

Key:
[1] = tested on: TK-1 cells; experiment: TK-1 cells in PM1 and PM2 plates, with or without 0.5 mM sodium pyruvate; format: cell-based, mouse
Method: In this Example, methods for testing a murine T lymphoma cells (Butcher et al., Eur. J. Immunol., 10:556-561 [1980]), for their ability to use multiple carbon sources are described. The methods used to culture the TK-1 lymphoma cell line were similar to those used to culture HL-60 cells, as described in Example 27.
TK-1 cells were grown in Falcon tissue culture flasks with vented tops. Culture medium was RPMI 1640 medium (Invitrogen 11875) with 4.5 g/L glucose, 2 mM L-glutamine, 1 mM sodium pyruvate, 0.1 mM nonessential amino acids (NEAA), 0.05 mM 2-mercaptoethanol (2ME), 2 g/L sodium bicarbonate, 5 mg/L phenol red, 50 U/mL penicillin, 50 μg/mL streptomycin, and 10% (v/v) heat inactivated fetal bovine serum (HI FBS, Invitrogen 16140). The cells were seeded at 3×10^5/mL, subcultured at 3 days after initiation of culture to 10^6 cells/mL and used 24 hours later. During all incubations, the cells were kept in an atmosphere of 5% CO2, 90-100% humidity, and 37° C.
A viable cell count was obtained by trypan blue exclusion and an appropriate volume of the cell suspension was placed in a polypropylene centrifuge tube. The cells were washed in DPBS and then resuspended to two-thirds the final volume needed in Dulbecco ? s Modified Eagle ? s Medium (DME, Sigma D5030) with the supplements listed in Table 17, as well as 2-ME, sodium pyruvate and NEAA, and including 10% HI FBS, but without glucose, L-glutamine, sodium pyruvate, and phenol red. This medium is termed DME-RTK. An aliquot was counted by trypan blue exclusion and the cell density was adjusted to 1×10^6/mL. Fifty μL of DME-RTK were added to each well of the appropriate number of half area, 96-well plates (PM1 and PM2 MICROPLATE testing plates). The cells were divided into two lots and one lot received a 1/100 dilution of 100 mM sodium pyruvate (final concentration, 0.5 mM). Cells from both lots were plated at a final cell density of 5×10^4/well (50 μL/well). For each plate containing chemicals and cells, a second, control plate containing only chemicals was prepared. Plates were incubated at 5% CO2, 90-100% humidity, and 37° C. for 1 hour prior to addition of the MTS/MPMS colorimetric reagent (5 μL/well). The color formed in each well 24 hours after addition of the colorimetric reagent, was measured with a plate reader at 490 nm with a reference wavelength of 650 nm. OD values from the control plate were subtracted from the OD values obtained with cells prior to normalizing the data to % negative control.

[2] = tested on: HL-60 cells; experiment: HL-60 cells in PM1 and PM2 plates, MTS/MPMS color, % negative control; format: cell-based, human; settings: for response of HL-60 cells: in the presence of added pyruvate
[3] = tested on: HepG2 cells; experiment: HepG2 cells cultured on CYTODEX 3 microcarriers, energy sources; format: cell-based, human; settings: Homo sapiens, HepG2, 68 h, read-out: Responses of HepG2 Cells Cultured on Microcarriers After 68 hours in Culture and a 4 hour Color Development Period
Procedure, shortened: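 HepG2 cells on CYTODEX 3 microcarriers, held in methylcellulose-containing DME with 10% HI FBS lacking glucose, glutamine and pyruvate, exposed to test energy sources at 0.033–20 mM final. After 68 h at 37 °C, MTS/PMS read at 490 nm (ref 650 nm) after 4–8 h; cell-free background subtracted, normalized to % no-energy-source control.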

[4] = tested on: ten strains of E. coli; format: cell-based, Escherichia coli; note: key: +: indicates that the organism tested was capable of utilizing the carbon source listed; −: indicates that the organism tested was not capable of utilizing the carbon source listed; indicates weak positive reactions
[5] = tested on: IMR-90 cells; experiment: Testing of IMR-90 cells in PM1a testing plates; format: cell-based; settings: for color of well: 24 hours of incubation
Method: IMR-90 cells were cultured in DMEM in 150 mm diameter petri dishes to near confluence under suitable conditions (e.g., 5% CO2, at 37° C.). The cells were harvested from 19 petri dishes, using the standard trypsin-EDTA procedure to detach the cells (i.e., 5 minute treatment with trypsin-EDTA), pooled and centrifuged at 1000×g for 5 minutes at 2-8° C., and resuspended in HBSS without phenol red. The cells were again centrifuged and resuspended in 24 ml inoculating fluid (IF-h). The cell density as determined by measurement using a Coulter Counter was about 3,000,000 cells/ml. Two-fold serial dilutions were prepared using prewarmed inoculating fluid, by mixing 12 ml of cell suspension with 12 ml IF-h, to produce six suspensions having 3,000,000 cells/ml (undiluted), 1,500,000 cells/ml, 750,000 cells/ml, 375,000 cells/ml, 187,500 cells/ml, and 93,750 cells/ml. A “no cell” control was also prepared, using 12 ml inoculating fluid. Each of the cell suspensions was then immediately inoculated into a PM1a PHENOTYPE MICROARRAY testing panel (Biolog), with about 100 μl of suspension added per well.
After approximately 4.5 hours of incubation at 37° C. in a CO2 incubator, the PHENOTYPE MICROARRAY testing panels were visually examined. […] The amount of background pink color was somewhat varied, depending upon the cell concentration. At the highest cell densities, there was a light pink color in all of the wells.

[6] = tested on: Staphylococcus aureus (ATCC #29213); experiment: MIC determination in MICROPLATE testing plates, saline vs GELRITE inoculant; format: cell-based; settings: ATCC29213, 18 h, SF-P plates with resazurin, 35° C.
Method: All three antimicrobials were obtained from Sigma. […] Kanamycin and tetracycline were dissolved in sterile water.

[7] = tested on: E. coli MG1655; format: cell-based, Escherichia coli
[8] = tested on: Saccharomyces cerevisiae (BY4741); experiment: Nutrient stimulation in EA MICROPLATE without methionine; format: cell-based; settings: medium without methionine, 30° C., 2 days
[9] = tested on: E. coli MG1655; format: cell-based, Escherichia coli; remark: listed apart in the source
[10] = tested on: E. coli (MG1655); experiment: Sensitivity in ES1, ES2, ES3 MICROPLATE panels in the presence of vancomycin or sulfamethoxazole (synergy/antagonism); format: cell-based, Escherichia coli
[11] = tested on: E. coli MG1655; experiment: PM kinetic profiles of antimicrobials, S-O-R scoring and dendrogram; format: cell-based, Escherichia coli
[12] = in the presence of 0.5 mM sodium pyruvate
[13] = approximately 4.5 hours at 37° C.

**Q.** With `O=C(O)c1ccc(O)cc1` [4-hydroxy-benzoic acid] as the compound, how does the “response of TK-1 cells” value [1, 12] read?
**A.** gained responses

**Q.** How did the response in words ([2]; L-glutamine 13.7 mM (well E1), citric acid 10.4 mM (well F2)) turn out when `O=C(O)CC(O)(CC(=O)O)C(=O)O` [Citric acid] was run?
**A.** inhibitory response

**Q.** What about the activity at 30 µM ([3]; Conc. 0.03 mM) of the same compound?
**A.** 103%

**Q.** And the activity at 100 µM ([3]; Conc. 0.10 mM)?
**A.** 111%

**Q.** What about the activity at 330 µM ([3]; Conc. 0.33 mM) of the same compound?
**A.** 112%

**Q.** What about the activity at 1000 µM ([3]; Conc. 1.00 mM) of the same compound?
**A.** 116%

**Q.** And the activity at 3300 µM ([3]; Conc. 3.3 mM)?
**A.** 131%

**Q.** What about the activity at 10000 µM ([3]; Conc. 10 mM) of the same compound?
**A.** 46.8%

**Q.** What about the activity at 15000 µM ([3]; Conc. 15 mM) of the same compound?
**A.** 31.5%

**Q.** What about the activity at 20000 µM ([3]; Conc. 20 mM) of the same compound?
**A.** 20.3%

**Q.** And the carbon source utilization [4]?
**A.** −

**Q.** How did the carbon source utilization [4] turn out when `O=C[C@@H](O)[C@@H](O)[C@H](O)[C@H](O)CO` [D-mannose] was run?
**A.** +

**Q.** And the color of well [5]?
**A.** distinctly darker clump of red cells

**Q.** And the “cellular morphology (microscopic)” value [5, 13]?
**A.** the cells looked healthy

**Q.** For `O=C(CO)[C@H](O)[C@H](O)[C@H](O)CO` [D-psicose], which carbon source utilization [4] is on record?
**A.** +

**Q.** And the “cellular morphology (microscopic)” value [5, 13]?
**A.** the cells looked healthy

**Q.** And the “color of well (carbon source oxidation)” value [5, 13]?
**A.** distinctly more pink than any other well

**Q.** `O=C(O)CC(CC(=O)O)C(=O)O` [G2] was tested. Which “Response of HL-60 Cells to the Carbon Sources of PM1” value ([2]; label = PM1 well (row+column), MTS/MPMS color after 24 hour, OD 490 nm) did it give?
**A.** 96 % of negative control

**Q.** For `NC[C@H]1O[C@H](O[C@H]2[C@H](O)[C@@H](O[C@H]3O[C@H](CO)[C@@H](O)[C@H](N)[C@H]3O)[C@H](N)C[C@@H]2N)[C@H](O)[C@@H](O)[C@@H]1O` [Kanamycin, kanamycin], which MIC ([6]; diluent GELRITE (0.4%)) is on record?
**A.** 16 to 32 µg/mL (≈ 33 to 66 µM)

**Q.** And the MIC ([6]; diluent Saline)?
**A.** 16 to 32 µg/mL (≈ 33 to 66 µM)

**Q.** How did the “response of TK-1 cells” value [1, 12] turn out when `N[C@@H](CCO)C(=O)O` [L-homoserine] was run?
**A.** lost responses

**Q.** And the “suitability as nitrogen source (growth, purple color)” value (from here on “suitability as nitrogen source”) [7]?
**A.** not suitable

**Q.** `CSCC[C@H](N)C(=O)O` [L-methionine] was tested. Which “suitability as nitrogen source” value [7] did it give?
**A.** not suitable

**Q.** What about the “stimulation of growth/respiration (pink color)” value [8] of the same compound?
**A.** increased pink color

**Q.** What about the “suitability as sulfur source (growth, purple color)” value [9] of the same compound?
**A.** positive

**Q.** Which “response of TK-1 cells” value [1, 12] does the source give for `NCCC[C@H](N)C(=O)O` [L-ornithine] here?
**A.** lost responses

**Q.** What about the “suitability as nitrogen source” value [7] of the same compound?
**A.** not suitable

**Q.** Which results are given for `N[C@@H](Cc1ccccc1)C(=O)O` [L-phenylalanine]?
**A.** response of TK-1 cells [1, 12]: gained responses; suitability as nitrogen source (growth, purple color) [7]: not suitable

**Q.** How did the “response of TK-1 cells” value [1, 12] turn out when `O=C1CC[C@@H](C(=O)O)N1` [L-pyroglutamic acid] was run?
**A.** gained responses

**Q.** What about the “response of HL-60 cells” value [2] of the same compound?
**A.** unable to respond

**Q.** And the “suitability as nitrogen source” value [7]?
**A.** not suitable

**Q.** Which carbon source utilization [4] does the source give for `COC(=O)C(C)=O` [Methyl pyruvate] here?
**A.** +

**Q.** And the “cellular morphology (microscopic)” value [5, 13]?
**A.** the cells were rounded up and appeared to be stressed

**Q.** Which MIC ([6]; diluent GELRITE (0.4%)) does the source give for `CN(C)[C@@H]1C(O)=C(C(N)=O)C(=O)[C@@]2(O)C(O)=C3C(=O)c4c(O)cccc4[C@@](C)(O)[C@H]3C[C@@H]12` [Tetracycline, tetracycline] here?
**A.** 0.25 to 1 µg/mL (≈ 0.563 to 2.25 µM)

**Q.** And the MIC ([6]; diluent Saline)?
**A.** 0.25 to 2 µg/mL (≈ 0.563 to 4.5 µM)

**Q.** How did the “response of TK-1 cells” value [1, 12] turn out when `OC[C@H]1O[C@@H](Oc2ccc(O)cc2)[C@H](O)[C@@H](O)[C@@H]1O` [arbutin] was run?
**A.** gained responses

**Q.** What does the source list for `CC(=O)OCC1=C(C(=O)O)N2C(=O)[C@@H](NC(=O)Cc3cccs3)[C@H]2SC1` [cephalothin]?
**A.** change of sensitivity to the panel compound ([10]; in the presence of 10 μg/ml vancomycin): increased sensitivity; change of sensitivity to the panel compound ([10]; in the presence of 235 μg/ml sulfamethoxazole): increased sensitivity; position in dendrogram of PM response profiles (FIG. 9) ([11]; 1× level of each antimicrobial, 7 PMs, 48 hours): cluster

**Q.** `N[C@@H](CCC(=O)N[C@@H](CS)C(=O)NCC(=O)O)C(=O)O` [glutathione (reduced form)] was tested. Which “suitability as nitrogen source” value [7] did it give?
**A.** not suitable

**Q.** What about the “stimulation of growth/respiration (pink color)” value [8] of the same compound?
**A.** increased pink color

**Q.** And the “suitability as sulfur source (growth, purple color)” value [9]?
**A.** positive

**Q.** With `CCn1cc(C(=O)O)c(=O)c2ccc(C)nc21` [nalidixic acid] as the compound, how does the “change of sensitivity to the panel compound” value [10] read?
**A.** increased sensitivity

**Q.** And the “position in dendrogram of PM response profiles (FIG. 9)” value [11]?
**A.** did not cluster with the other two DNA gyrase inhibiting chemicals

**Q.** Which “stimulation of growth/respiration (pink color)” value [8] does the source give for `Cc1ncc(CO)c(CO)c1O` [pyridoxine] here?
**A.** increased pink color

**Q.** Which “response of TK-1 cells” value [1, 12] does the source give for `O=C(O)CCCCCCCCC(=O)O` [sebacic acid] here?
**A.** gained responses

**Q.** With `O=C([O-])CC(O)C(=O)[O-].[Na+].[Na+]` (stereo not shown) [sodium malate] as the compound, how does the “cellular morphology (microscopic)” value [5] read?
**A.** the cells were rounded up and appeared to be stressed

**Q.** How did the carbon source utilization [4] turn out when `OC[C@H]1O[C@@H](O[C@H]2[C@H](O)[C@@H](O)[C@@H](O)O[C@@H]2CO)[C@H](O)[C@@H](O)[C@H]1O` [α-D-lactose] was run?
**A.** +

**Q.** What about the color of well [5] of the same compound?
**A.** distinctly darker clump of red cells

**Q.** How did the “response of TK-1 cells” value [1, 12] turn out when `CO[C@@H]1OC[C@@H](O)[C@H](O)[C@H]1O` [β-methyl xyloside] was run?
**A.** gained responses

**Q.** How did the “response of TK-1 cells” value [1, 12] turn out when `NCCCC(=O)O` [γ-aminobutyric acid] was run?
**A.** gained responses

**Q.** And the “response of HL-60 cells” value [2]?
**A.** unable to respond

**Q.** Which “response of TK-1 cells” value [1] does the source give for `O=C(O)CCCO` [γ-hydroxybutyric acid] here?
**A.** lost responses

**Q.** Which “response of TK-1 cells” value [1, 12] does the source give for pectin here?
**A.** gained responses
